In paper PMC5164911, “Comparative Analysis of the Interaction between Different Flavonoids and PDIA3” (Oxidative Medicine and Cellular Longevity, 2016):

Tests used:
PDIA3 [1] = target: T1, PDIA3 (Homo sapiens, UniProt P30101); test: Disulfide reductase activity with DiE-GSSG fluorogenic probe; format: biochemical; conditions: DiE-GSSG substrate; for Inhibition of disulfide reductase (redox) activity: 20 μM flavonoid (Figure 7)
T1 construct: made in house; host or cells: E. coli BL21 (vector pET21)
T1 sequence (P30101 25-505): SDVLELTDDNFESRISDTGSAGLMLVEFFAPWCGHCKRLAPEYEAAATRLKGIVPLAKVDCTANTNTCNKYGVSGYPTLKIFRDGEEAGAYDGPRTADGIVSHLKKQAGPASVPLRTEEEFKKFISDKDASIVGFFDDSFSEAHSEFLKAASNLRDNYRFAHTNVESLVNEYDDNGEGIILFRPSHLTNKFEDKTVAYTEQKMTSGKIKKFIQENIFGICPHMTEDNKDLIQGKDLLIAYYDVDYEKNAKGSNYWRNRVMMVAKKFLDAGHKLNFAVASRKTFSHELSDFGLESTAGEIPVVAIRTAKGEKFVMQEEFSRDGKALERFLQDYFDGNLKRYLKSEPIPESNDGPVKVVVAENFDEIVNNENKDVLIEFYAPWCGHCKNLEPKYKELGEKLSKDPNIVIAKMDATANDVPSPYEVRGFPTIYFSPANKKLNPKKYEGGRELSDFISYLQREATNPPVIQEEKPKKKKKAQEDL
Procedure: Disulfide reductase activity of ERp57 was monitored by sensitive fluorescent assay using dieosin glutathione disulfide (DiE-GSSG) as fluorogenic probe. DiE-GSSG was synthesized by the reaction of eosin isothiocyanate with oxidized glutathione (GSSG) according to the method of Raturi and Mutus with some modifications. DiE-GSSG concentration was determined spectrophotometrically (ℇ 525 = 88,000 M^-1 cm^−1). Disulfide reductase activity was assayed in a reaction buffer containing 2 mM EDTA, 150 nM DiE-GSSG, and 5 μM DTT in PBS. A 20 μl aliquot of a stock solution of PDIA3 (1 μM) was added to the reaction mixture and DiE-GSSG reduction was monitored at 545 nm with excitation at 520 nm, at 25°C with continuous stirring. Reductase activity was calculated as the initial velocity in fluorescence increase. To test the effect of flavonoids on PDIA3 activity, the protein stock solution was previously incubated for 15 minutes at room temperature with different concentrations of each flavonoid and then a 20 μl aliquot subjected to assay in a reaction buffer containing the same concentration of the flavonoid.
Fluorescence quenching constant (K SV) values were given as means ± standard deviation and values of disulfide reductase activity were expressed in % of control sample ± relative standard deviation. All measurements were performed at least three times. Dunnett's test was used to compare the obtained reductase activity data with the activity of the untreated protein and a p value of <0.01 was considered as statistically significant.

PDIA3 [2] = target: T1, PDIA3; test: DNA binding activity by EMSA; format: biochemical; conditions: flavonoid 0 to 50 μM
Procedure: EMSA assay was performed using a 79-bp […] obtained by PCR as previously described. Amplified DNA was end-labeled by using 5-fluorescein-modified primers. 10 ng of DNA fragment was incubated with 1 μg of PDIA3 or a′ domain, in presence of increasing concentration of flavonoids (from 0 to 50 μM). Controls were performed using DNA alone and in the presence of each flavonoid. All tests were performed in 20 μl mixtures containing 20 mM Tris-HCl, pH 7.5, 50 mM NaCl, and 10% (v/v) glycerol. Samples were incubated for 1 hour at 25°C and then resolved on 5% polyacrylamide gels in 0,25% TBE buffer (22.5 mM Tris-borate, 5 mM EDTA, pH 8.3) at 150 V. Gel images were recorded using a ChemiDoc MP Imaging System (BioRad) equipped with an epi-blue excitation lamp and a 520 nm emission filter.

PDIA3 [3] = target: T1, PDIA3; test: Differential scanning fluorimetry (thermal stability, SYPRO Orange); format: binding; conditions: flavonoid up to 50 μM, mainly at the highest concentration
Procedure: Protein stability was tested by the fluorescence-based thermal stability assay or differential scanning fluorimetry (DSF) developed by Pantoliano and coworkers. DSF records the fluorescence emission signal from the binding of a dye (SYPRO orange) to the exposed hydrophobic patches upon protein unfolding. Fluorescence measurements were performed using a CFX96 Connect RT-PCR instrument (BioRad). 18 μl aliquots of protein solution (1 μM), freshly diluted in Tris Buffered saline (50 mM TrisHCl, pH 8.0, 150 mM NaCl) containing 0.1 mM DTT, 0.2 mM EDTA, and 1 : 1000 dilution of SYPRO Orange (50 mM stock solution in DMSO), were distributed in a 96-well plate. Sample wells were addition of increasing concentration (up to 50 μM) of individual flavonoid by adding 2 μl of 10-fold concentrated stock solutions freshly prepared. As control, the protein solution was added with 2 μl of the dilution buffer. A melting point analysis was recorded increasing the temperature from 20 to 95°C with an increment of 0.5°C and reading, at each temperature, the fluorescence in fluorescence resonance energy transfer mode (FRET). Each measure was the average of three sample wells reading and each DSF experiment was repeated at least three times. To calculate T m values, DSF data from the melting curve were exported and fitted to Boltzman equation using GraphPad software. Effect of flavonoids was evaluated comparing the T m values in presence and absence of each molecule.

With COc1ccc(-c2cc(=O)c3c(OC)c(OC)c(OC)cc3o2)cc1O [Eupatorin-5-methyl ether, eupatorin-5-methyl-ether] the “Inhibition of disulfide reductase (redox) activity” value (“Inhibition of disulfide reductase” for short) (PDIA3 [1]) was “up to 40%”, the “Effect on disulfide reductase activity (in words)” value (PDIA3 [1]) was “noticeable inhibitory effect” and the “Effect on DNA binding activity of PDIA3” value (PDIA3 [2]) was “did not significantly affect”.

In the case of COc1ccc(-c2cc(=O)c3c(O)c(OC)c(OC)cc3o2)cc1O [Eupatorin, eupatorin], the “Inhibition of disulfide reductase” value (PDIA3 [1]) was 40%, the “Inhibition of disulfide reductase” value (PDIA3 [1]; listed as eupatorin) was “up to 40%” and the “Effect on disulfide reductase activity (in words)” value (PDIA3 [1]) was “noticeable inhibitory effect”. The “Effect on DNA binding activity of PDIA3” value (PDIA3 [2]) was “did not significantly affect and None”.

For O=c1cc(-c2ccc(O)cc2)oc2cc(O)cc(O)c12 [Apigenin, apigenin], the “Effect on disulfide reductase activity (in words)” value (PDIA3 [1]) was “no evident effect” and the “Effect on PDIA3 stability (T m)” value (PDIA3 [3]) was “similar, but less pronounced, effect”.
